The subject of one assay is 12-LO activity in HSMC. Briefly: 12-HETE release and cell-associated 12-HETE in HSMC (HPLC/RIA). It is filed as cell-based, human. The procedure:
FIG. 3A illustrates the effect of AII on 12-HETE release by HSMC. HSMC were grown to confluency. Serum was removed and cells were incubated in media 199 containing 0.4% fetal bovine serum (FBS) and 0.2% BSA for 18 hours. Cells were then washed with DME media and incubated for 20 minutes in DME media containing 0.2% BSA. AII was added to the cells for five and ten minutes at the concentrations of 10^−9 and 10^−8 mol/L. Media were collected for HETE assay. • *p<0.05 vs control n=4
FIG. 3B illustrates the effect of AII on cell-associated 12-HETE levels in HSMC. After collecting supernatants, cells were washed with ice-cold PBS and harvested by scraping for the assay of cell-associated HETEs. • *p<0.02 vs control n=4
HSMC and HAEC monolayers were washed twice with ice-cold PBS and then processed for RNA extraction or western analysis as described below. For hydroxyeicosatetraenoic acid (HETE) assay, approximately 24 hours prior to an experiment, the medium was replaced with medium 199 containing 0.4% FBS and 0.2% BSA.
These assays were performed using previously published methods (10,11). Briefly, 12- and 15-HETE are extracted from supernatants and cells on C18 mini columns (Analytichem International, CA) and measured using our validated reverse phase gradient HPLC and (RIA) methods.
Another major aspect of this invention is the discovery that AII increases the activity and expression of 12-LO mRNA and protein in HSMC.

The test system of a further assay is JNK. Kind of assay: JNK activity in CHO-AT1a cells. The format is cell-based, Chinese hamster. The conditions noted are these: AII 10^−7M. The protocol:
The plasmid pGEX-cJun 1/79 (Dept. Pharmacol. UCSD, La Jolla) is a GST-cJun (1-79) expression vector encoding amino acids (1-79) of cJun. The GST fusion protein expression vector was transformed into E. Coli. Protein was induced with 0.1 mM IPTG and purified by affinity binding to glutathione-agarose beads. Unstimulated or stimulated cells were lysed into WCEB (25 mM HEPES, pH 7.7, 03.M Nacl, 15 mM MgCl2, 02.mM EDTA and 0.1% triton X-100). About 50 μg protein extract was incubated with GST-cJun+GSH agarose overnight at 4° C. Phosphorylation was carried out at 30° C. for 20 minutes in the presence of 20 mM HEPES, pH 7.5, 20 mM b-glycerophosphate, 10 mM p-nitrophenolphosphate, 10 mM MgCl2, 10 mM DDT, 50 μg Na3VO4, 20 μM ATP (cold) and about 0.5 μl of new gamma ^32P-ATP. After boiling with electrophoresis sample buffer, the supernatants were analyzed on 12% SDS-PAGE. JNK activity was also measured by immunoprecipitation method using an anti-JNK antibody (Parmingen Co., San Diego) and then activities were measured using 2 μg of GST-cJun (1-79) as substrate as described in Cell, 81:1147-1157 (1995).
It has been discovered that the administration of AII results in biphasic activation of MAP kinase (all of the MAP kinase experiments were conducted in CHO-AT1a cells—AII receptor AT1a cDNA transfected Chinese hamster ovary cells).

For the substance “Angiotensin II (DRVYIHPF; Angiotensin-2; UniProt P01019 25-32, looked up) [AII, peptide hormone, added to cells as stimulus]”, the “release of 12-HETE” value is 1467±277 pg per mg of protein in the assay on 12-LO activity in HSMC (AII 10^−8M, 5 minute incubation, serum free media, control 599±105); “significantly simulated the release of 12-HETE” in the assay on 12-LO activity in HSMC (AII 10^−8 mol/L, ten minute incubation); 1296±262 pg per mg of protein in the assay with 12-LO activity in HSMC (AII 10^−9 mol/L, 5 minute incubation, serum free media, control 599±105). In addition, the “cell-associated 12-HETE levels” value with 12-LO activity in HSMC (HSMC, FIG. 3B) is “significantly also increased”. In addition, the “stimulation of JNK activity” value in the assay on JNK is “peaks at 30 minutes and remains sustained for 1 hour”.

(Values after patent publication US6893829B2, “Human leukocyte 12-lipoxygenase and its role in the pathogenesis of disease states” (City of Hope, priority 1992, dated 2005).)
